Patent US10653139B2 (priority 2015, dated 2020)

How the values were obtained:
Acanthoscelides obtectus = test: Insecticidal activity test, vapour phase, bean; type: in vivo; details: 7.5 μL/mL
grain maize germination = test: In vitro germination assay of treated seeds; details: 3.5 months treatments, in vitro after 4 days (FIG. 2A)
Experimental: (§1) FIG. 2—Represents the effect of 3.5 months treatments on grain maize germination: (A) in vitro after 4 days and (B) in vivo 17 days after sowing (DAS).
In an embodiment, for the in vitro germination assay were used 10 seeds and 5 ml of sterile water per petri dish and the incubation temperature was ±25° C.

[1] = system: plants produced from treated seeds; test: In vivo effects on plants from treated seeds (pots in greenhouse); parameters: species or system maize
Experimental: as §1
In an embodiment, the assay was performed in pots in a greenhouse with environmental monitoring (temperature, humidity and PAR intensity) and controlled irrigation. For each treatment, 6 pots with 2 plants each were used. […] No relevant differences in phenotypic (germination, chlorophyll and height) and physiological parameters (photosynthesis, stomatal conductance and transpiration (FIG. 3) were found.

[2] = Container atmosphere composition (GC-PID); type: physicochemical; details: after 20 days of storage, one or two devices, 24 ml pulegone, 65 L container, maintained 4/5 months
Experimental: To study the evolution of the spatial and temporal pulegone concentration, two containers with 1 and 2 release devices were used, similar to those described in 4.1. In each container, 24 ml of pulegone were impregnated in cotton.
The spatial concentration profiles along time were outlined by collecting over time samples of 500 μL from the container atmosphere, through the 6 sampling ports (detailed presentation in FIG. 1) using a 500 μL gas-tight Hamilton syringe.
Nitrogen was used as carrier gas at a constant 2 mL flow rate.

[3] = system: fungi growth on dried grains; test: Antifungal in vivo test on dried grains, vapour phase; details: dried grains on PDA, 25 weeks
Excerpt: 1.2 In vivo tests. The efficacy screening of the vapour of clove and pennyroyal essential oils (OE) and their main active components (MAC) eugenol, pulegone or their mixture was, carried out using a modified technique describe in Bluma, R., Landa, M. F., Etcheverry, M., 2009. Impact of volatile compounds generated by essential oils on Aspergillus section Flavi growth parameters and aflatoxin accumulation. J. Sci. Food Agric. 89 (9), 1473-1480. For the determination of volatile phase effect of essential oil on fungi growth different concentrations of essential oil were added to sterile filter papers (10 mm diameter, Whatman No. 1), namely, 0.5 μL/mL, 1.0 μL/mL, 2.5 μL/mL and 5.0 μL/mL and placed adherent to the inner surface of each Petri dishes lid (90 mm).
The grains were disinfected at surface as describe by Pitt & Hocking (Pitt, J. I., Hocking, A. D., 2009. Fungi and food spoilage. Springer, New York).
Ten dried grains were placed on Petri dishes with 20 mL of PDA medium with chloramphenicol (1%). These dishes were sealed immediately with parafilm and incubated at 28° C. Inhibition concentrations of volatile phase of essential oils were determined by periodic observation of fungi growth over 25 weeks. Control with no treated grains was also performed. For each concentration ten replicates were done.

Sitophilus zeamais = test: Insecticidal activity test, vapour phase, maize; type: in vivo; details: 18.8 μL/mL
Experimental: Maize grain with an average moisture content of 14±0.5% and ten unsexed adult insects aged from 1 to 4 days were used. The stock cultures of insects and the biological tests were carried out in a single incubator at 27° C. and 75±5% relative humidity.
Control with non-treated samples was also performed. Ten replicates per treatment and control were set up. All the replicates were kept in an incubator at 27° C. and 75%±5% relative humidity.
The progeny (F1) was evaluated monthly by common procedures after removing the parent adults. Insect mortality was assessed during five months (0.25, 1, 8, 134 and 149 days). The development index and the life cycle were also evaluated.

Penicillium islandicum [4] = test: Antifungal in vitro assay, volatile (vapour) phase; type: cell-based; details: observed over 25 weeks
Experimental: (§2) Petri dishes were inoculated with a 5 mm diameter disk of fungi grown on PDA medium for 8 days at 28° C. This disk was placed on the agar surface and the dish sealed immediately with parafilm and incubated at 28° C. Inhibition concentrations of volatile phase of essential oils were determined by a periodic evaluation the fungi growth over 25 weeks. In the control, equal amounts of sterilized water was added to filter papers and placed onto the lid of Petri dishes. For each concentration, four replicate Petri dishes were used. The absence of growth was recorded during 25 weeks.

Aspergillus niger [5] = test: Antifungal in vitro assay, volatile (vapour) phase; type: cell-based; details: observed over 25 weeks
Experimental: as §2

Fusarium culmorum [6] = test: Antifungal in vitro assay, volatile (vapour) phase; type: cell-based; details: observed over 25 weeks
Experimental: as §2

Aspergillus candidus [7] = test: Antifungal in vitro assay, volatile (vapour) phase; type: cell-based; details: observed over 25 weeks
Experimental: as §2

Penicillium islandicum [8] = test: Antifungal in vitro assay, direct plating; type: cell-based; details: observed over 25 weeks
Experimental: (§3) The screening of S. aromaticum and M. pulegium essential oils and their major components, eugenol and pulegone, respectively, was carried out using a direct plating technique in order to evaluate their ability to inhibit the growth of Aspergillus candidus, A. niger, Penicillium islandicum and Fusarium culmorum.
(§4) In vitro assays. For the determination of direct plating effect of essential oil on the growth of the fungi on different concentrations 0.5, 1.0, 2.5 and 5.0 μL/mL of essential oil were put on the surface of a Petri dish with 20 mL of potato dextrose agar medium (PDA). These Petri dishes were inoculated with a 5 mm diameter disk of fungi grown on PDA medium for 8 days at 28° C. This disk was placed on the agar surface and the dish sealed immediately with parafilm to prevent loss of essential oil to the atmosphere and incubated at 28° C. Inhibition concentrations of essential oil were determined by periodic evaluation of fungi growth during 25 weeks. For each concentration, four replicate dishes were used.

Aspergillus niger [9] = test: Antifungal in vitro assay, direct plating; type: cell-based; details: observed over 25 weeks
Experimental: as §3, §4

Fusarium culmorum [10] = test: Antifungal in vitro assay, direct plating; type: cell-based; details: observed over 25 weeks
Experimental: as §3, §4

Aspergillus candidus [11] = test: Antifungal in vitro assay, direct plating; type: cell-based; details: observed over 25 weeks
Experimental: as §3, §4

## C=C(C)[C@H]1CC=C(C)CC1 [Limonene, reference compound]
Acanthoscelides obtectus; 0.25 days
  Insect Mortality (%): 0%
Acanthoscelides obtectus; 1 day (control 29)
  Insect Mortality (%): 100%
Acanthoscelides obtectus; 8 days (control 100)
  Insect Mortality (%): 100%
Acanthoscelides obtectus; 134 days (control 100)
  Insect Mortality (%): 100%
Acanthoscelides obtectus; 149 days (control 100)
  Insect Mortality (%): 100%
Grain maize germination
  seed germination capacity, in vitro: significant decrease
[1]; plants from treated seeds (FIG. 4A)
  height of plants relatively to the control: small variation
[1]; plants obtained from treated grains
  decrease in total chlorophyll content related to the control: 1.9%
[1]; pots in greenhouse, figure printed in brackets after 'really affected the germination'
  germination, in vivo: 49.1%

## CC(C)=C1CC[C@@H](C)CC1=O [Pulegone, pulegone]
[2]
  stabilized concentration level in the container atmosphere: 10 % of the standard pulegone saturation value
Acanthoscelides obtectus; 0.25 days
  Insect Mortality (%): 0%
Acanthoscelides obtectus; 1 day (control 29)
  Insect Mortality (%): 100%
Acanthoscelides obtectus; 8 days (control 100)
  Insect Mortality (%): 100%
Acanthoscelides obtectus; 134 days (control 100)
  Insect Mortality (%): 100%
Acanthoscelides obtectus; 149 days (control 100)
  Insect Mortality (%): 100%
[3]; 0.5 μL/mL
  Time (weeks), period of storage without any fungal contamination, in vivo: 2 weeks
[3]; 2.5 μL/mL
  Time (weeks), period of storage without any fungal contamination, in vivo: 20 weeks
[3]; 5.0 μL/mL
  Time (weeks), period of storage without any fungal contamination, in vivo: 25 weeks
Sitophilus zeamais; 0.25 days
  Insect Mortality (%): 46%
Sitophilus zeamais; 1 day
  Insect Mortality (%): 100%
Sitophilus zeamais; 8 days
  Insect Mortality (%): 100%
Sitophilus zeamais; 134 days
  Insect Mortality (%): 100%
Sitophilus zeamais; 149 days
  Insect Mortality (%): 100%

## C=CCc1ccc(O)c(OC)c1 [Eugenol, eugenol]
Penicillium islandicum [4]; 0.5 μL/mL
  Time (weeks), period of storage without any fungal contamination: 25 weeks
Penicillium islandicum [4]; 1.0 μL/mL
  Time (weeks), period of storage without any fungal contamination: 25 weeks
Penicillium islandicum [4]; 2.5 μL/mL
  Time (weeks), period of storage without any fungal contamination: 25 weeks
Penicillium islandicum [4]; 5.0 μL/mL
  Time (weeks), period of storage without any fungal contamination: 25 weeks
Aspergillus niger [5]; 0.5 μL/mL
  Time (weeks), period of storage without any fungal contamination: 23 weeks
Aspergillus niger [5]; 1.0 μL/mL
  Time (weeks), period of storage without any fungal contamination: 25 weeks
Aspergillus niger [5]; 2.5 μL/mL
  Time (weeks), period of storage without any fungal contamination: 25 weeks
Aspergillus niger [5]; 5.0 μL/mL
  Time (weeks), period of storage without any fungal contamination: 25 weeks
Fusarium culmorum [6]; 0.5 μL/mL
  Time (weeks), period of storage without any fungal contamination: 25 weeks
Fusarium culmorum [6]; 1.0 μL/mL
  Time (weeks), period of storage without any fungal contamination: 25 weeks
Fusarium culmorum [6]; 2.5 μL/mL
  Time (weeks), period of storage without any fungal contamination: 25 weeks
Fusarium culmorum [6]; 5.0 μL/mL
  Time (weeks), period of storage without any fungal contamination: 25 weeks
Aspergillus candidus [7]; 0.5 μL/mL
  Time (weeks), period of storage without any fungal contamination: 21 weeks
Aspergillus candidus [7]; 1.0 μL/mL
  Time (weeks), period of storage without any fungal contamination: 25 weeks
Aspergillus candidus [7]; 2.5 μL/mL
  Time (weeks), period of storage without any fungal contamination: 25 weeks
Aspergillus candidus [7]; 5.0 μL/mL
  Time (weeks), period of storage without any fungal contamination: 25 weeks
Acanthoscelides obtectus; 0.25 days
  Insect Mortality (%): 0%
Acanthoscelides obtectus; 1 day (control 29)
  Insect Mortality (%): 70%
Acanthoscelides obtectus; 8 days (control 100)
  Insect Mortality (%): 100%
Acanthoscelides obtectus; 134 days (control 100)
  Insect Mortality (%): 100%
Acanthoscelides obtectus; 149 days (control 100)
  Insect Mortality (%): 100%
[3]; 0.5 μL/mL
  Time (weeks), period of storage without any fungal contamination, in vivo: 2 weeks
[3]; 2.5 μL/mL
  Time (weeks), period of storage without any fungal contamination, in vivo: 25 weeks
[3]; 5.0 μL/mL
  Time (weeks), period of storage without any fungal contamination, in vivo: 25 weeks
Penicillium islandicum [8]; 0.5 μL/mL
  Time (weeks), period of storage without any fungal contamination: 25 weeks
Penicillium islandicum [8]; 1.0 μL/mL
  Time (weeks), period of storage without any fungal contamination: 25 weeks
Penicillium islandicum [8]; 2.5 μL/mL
  Time (weeks), period of storage without any fungal contamination: 25 weeks
Penicillium islandicum [8]; 5.0 μL/mL
  Time (weeks), period of storage without any fungal contamination: 25 weeks
Aspergillus niger [9]; 0.5 μL/mL
  Time (weeks), period of storage without any fungal contamination: 25 weeks
Aspergillus niger [9]; 1.0 μL/mL
  Time (weeks), period of storage without any fungal contamination: 25 weeks
Aspergillus niger [9]; 2.5 μL/mL
  Time (weeks), period of storage without any fungal contamination: 25 weeks
Aspergillus niger [9]; 5.0 μL/mL
  Time (weeks), period of storage without any fungal contamination: 25 weeks
Fusarium culmorum [10]; 0.5 μL/mL
  Time (weeks), period of storage without any fungal contamination: 25 weeks
Fusarium culmorum [10]; 1.0 μL/mL
  Time (weeks), period of storage without any fungal contamination: 25 weeks
Fusarium culmorum [10]; 2.5 μL/mL
  Time (weeks), period of storage without any fungal contamination: 25 weeks
Fusarium culmorum [10]; 5.0 μL/mL
  Time (weeks), period of storage without any fungal contamination: 25 weeks
Aspergillus candidus [11]; 0.5 μL/mL
  Time (weeks), period of storage without any fungal contamination: 25 weeks
Aspergillus candidus [11]; 1.0 μL/mL
  Time (weeks), period of storage without any fungal contamination: 25 weeks
Aspergillus candidus [11]; 2.5 μL/mL
  Time (weeks), period of storage without any fungal contamination: 25 weeks
Aspergillus candidus [11]; 5.0 μL/mL
  Time (weeks), period of storage without any fungal contamination: 25 weeks
